Data on eight molecules can be found in patent publication US11365207B2, “Sulfur-containing polycyclic-hydroxypyridone carboxamide analog against HIV” (priority 2018, dated 2022).

One may read the CC50 as the concentration at which the toxic effect on the cells reaches its halfway point. For orientation: EC50 means the concentration that produces a half-maximal response. High values mean a less potent agent, low ones a more potent agent.

Counter-ions that a name gives are not always drawn.

System in one data set: not listed separately
As to the kind of experiment: Toxicity test of C8166 cells (MTT colorimetric method). It counts as cell-based. The note with it: human, C8166 cells (T lymphocytic cell line); C8166 cells, MTT, 3 days; read-out: CC50. The procedure: (§1) Human T lymphocytic series C8166 and HIV-1 experiment strain HIV-1IIIB are both from National Institutes of Health (NIH); cells are cultured in the RPMI-1640 complete culture medium containing 10% fetal bovine serum. HIV-1IIIB is prepared by using a conventional method, titration and calculation of TCID 50 of viruses are performed. Virus stock solution is subpackaged and stored at −70° C. Cells and viruses are cryopreserved and recovered according to conventional methods.
6. Toxicity Test of C8166 Cells
100 μl of 4×10^5 ml C8166 was mixed with different to-be-detected drug solutions, and 3 repetition wells were set. Meanwhile, control wells were set. Culture was performed for 3 days under the conditions of 37° C. and 5% CO2. Cytotoxicity was detected with MTT colorimetric method. The OD value was measured with EL ×800 ELIASA, the wavelength was measured as 570/630 nm. The CC50 value was calculated (50% cytotoxic concentration), namely, the concentration of the drug when toxicity was generated for 50% normal T lymphocytic series C8166.
(§2) According to experiment results, fitted curves are drawn using Origin2016, the 50% effective concentrations (EC50) of the samples inhibiting viruses, 50% cell growth inhibition concentrations (CC50) and TI (therapeutic index) value against HIV-1 activity are calculated based on Reed & Muench method, and the TI value is TI=CC50/EC50.
1. Cell growth survival rate (%)=experiment well OD value/control well OD value×100
(In general: Formazan colour is commonly taken as a measure of viable cells.)
As for `CC(C)(C)[C@H]1CSC2Cn3cc(C(=O)NCc4ccc(F)cc4F)c(=O)c(O)c3C(=O)N21` (stereo partly drawn) [Compound 8], the CC50 at 3 days came out at 26300 ± 350 nM.
The same measure, in the same setting: the same measure for `O=C(NCc1ccc(F)cc1F)c1cn2c(c(O)c1=O)C(=O)N1C(C2)SC[C@@H]1c1ccccc1` (stereo partly drawn) [Compound 10]: 45160 ± 410 nM.
Turning to `O=C(NCc1ccc(F)cc1F)c1cn2c(c(O)c1=O)C(=O)N1C(C2)SC[C@@H]1Cc1ccccc1` (stereo partly drawn) [Compound 12], the CC50 at 3 days is 28600 ± 320 nM.
Same read-out and setting: next, `C[C@@H]1CCSC2Cn3cc(C(=O)NCc4ccc(F)cc4F)c(=O)c(O)c3C(=O)N21` (stereo partly drawn) [Compound 18]: 14000 ± 210 nM; `CC(C)C[C@H]1CSC2Cn3cc(C(=O)NCc4ccc(F)cc4F)c(=O)c(O)c3C(=O)N21` (stereo partly drawn) [Compound 20]: 18300 ± 190 nM; `C[C@H]1CSC2Cn3cc(C(=O)NCc4ccc(F)cc4)c(=O)c(O)c3C(=O)N21` (stereo partly drawn) [Compound 66]: 20100 ± 210 nM.
Same read-out and setting: next, `C[C@@H]1CCO[C@H]2Cn3cc(C(=O)NCc4ccc(F)cc4F)c(=O)c(O)c3C(=O)N12` [Dolutegravir, reference compound]: 26600 ± 2200 nM.
The same measure, in the same setting: next, `CC(C)OC(=O)OCOP(=O)(CO[C@H](C)Cn1cnc2c(N)ncnc21)OCOC(=O)OC(C)C` [TDF, tenofovir disoproxil fumarate, reference compound]: 157000 ± 21400 nM.

In another data set the test system is HIV-1IIIB. As to the kind of experiment: Inhibition of replication in HIV-1IIIB acute infectious C8166 cells (p24 antigen capture ELISA). It counts as cell-based. The note with it: Human immunodeficiency virus 1, 72 h; P24 antigen, HIV-1IIIB acute infectious C8166 cells, 3 days; values given in pM. The procedure:
as §1
5. Measurement of HIV-1 p24 Antigen with p24 Antigen Capture ELISA Method
The 1 μg/plate of anti-mouse IgG Fc antibody was paved at 4° C. for overnight; the plate was sealed with 5% skimmed milk powder 4° C. for overnight; 100 μl/well mouse anti-p24 monoclonal antibody was added at 37° C. for 1 h; 100 μl/well (1:100) diluted rabbit anti-p24 polyclonal antibody (homemade) was added for 1 h at 37° C.; 100 μl/well (1:20000) diluted goat anti-rabbit IgG HRP was added for 1 h at 37° C.; OPD substrate reaction solution was added. After 10 min, 2M sulfuric acid was added to stop the reaction. The OD value was determined by Elx800 ELISA, and the wavelength was measured as 490/630 nm. The inhibition rate and EC50 of the drug on the p24 antigen replication and expression of HIV-1, namely, the concentration of the drug inhibiting 50% HIV-1 p24 antigen were calculated, namely, the concentration of the drug inhibiting 50% HIV-1 p24 antigen expression was calculated.
8. Inhibition Effect of Samples on Replication in Experiment Strain HIV-1IIIB Acute Infectious C8166 Cells
4×10^5 cells/ml C8166 cells and HIV-1IIIB MOI (multiplicity of infection=0.04) are infected for 2 h at 37° C., the obtained mixture is washed three times with PBS to remove free virus ions, 100 μl of cells are inoculated onto the 96-well plate containing 100 μl of to-be-detected compounds having different dilutions and cultured for 3 days under the conditions of 37° C. and 5% CO2. The cultural supernatant is centrifuged and then collected, and finally lysed and inactivated with 0.5% Triton X-100. The inhibition effect of the drug on HIV-1 replication is detected by using the p24 antigen capture ELISA method.
as §2
3. HIV-1 p24 antigen expression inhibition rate (%)=(1−experiment well OD value/control well OD value)×100
As for `CC(C)(C)[C@H]1CSC2Cn3cc(C(=O)NCc4ccc(F)cc4F)c(=O)c(O)c3C(=O)N21` (stereo partly drawn) [Compound 8], the EC50 is 781 ± 113 pM.
Still for that read-out and setting: next, `O=C(NCc1ccc(F)cc1F)c1cn2c(c(O)c1=O)C(=O)N1C(C2)SC[C@@H]1Cc1ccccc1` (stereo partly drawn) [Compound 12]: 589 ± 86.1 pM; `C[C@@H]1CCSC2Cn3cc(C(=O)NCc4ccc(F)cc4F)c(=O)c(O)c3C(=O)N21` (stereo partly drawn) [Compound 18]: 11.1 ± 2.09 pM; `CC(C)C[C@H]1CSC2Cn3cc(C(=O)NCc4ccc(F)cc4F)c(=O)c(O)c3C(=O)N21` (stereo partly drawn) [Compound 20]: 148 ± 20.1 pM.
On the same count and under the same terms, the same measure for `C[C@H]1CSC2Cn3cc(C(=O)NCc4ccc(F)cc4)c(=O)c(O)c3C(=O)N21` (stereo partly drawn) [Compound 66]: 83.6 ± 10.9 pM.

The same data set, now with this note: Human immunodeficiency virus 1, 72 h; P24 antigen, HIV-1IIIB acute infectious C8166 cells, 3 days; values in nM.
In turn, `O=C(NCc1ccc(F)cc1F)c1cn2c(c(O)c1=O)C(=O)N1C(C2)SC[C@@H]1c1ccccc1` (stereo partly drawn) [Compound 10] had a concentration for a half-maximal effect (EC50) of 4160 ± 580 pM.
On the same count and under the same terms, next, `C[C@@H]1CCO[C@H]2Cn3cc(C(=O)NCc4ccc(F)cc4F)c(=O)c(O)c3C(=O)N12` [Dolutegravir, reference compound]: 1050 ± 120 pM; `CC(C)OC(=O)OCOP(=O)(CO[C@H](C)Cn1cnc2c(N)ncnc21)OCOC(=O)OC(C)C` [TDF, tenofovir disoproxil fumarate, reference compound]: 8070 ± 4720 pM.

The data set is the same for the next values; noted with them: statement in words.
As to `C[C@@H]1CCSC2Cn3cc(C(=O)NCc4ccc(F)cc4F)c(=O)c(O)c3C(=O)N21` (stereo partly drawn) [Compound 18], the “inhibitory effect on HIV-1 replication in vitro” value (“inhibitory effect” for short) is recorded as “extremely strong inhibition effects”.
In the case of `C[C@H]1CSC2Cn3cc(C(=O)NCc4ccc(F)cc4)c(=O)c(O)c3C(=O)N21` (stereo partly drawn) [Compound 66], the “inhibitory effect” value was “strong inhibitory effect”.

The data set is the same for the next values; noted with them: statement in words; listed as compound 18.
Regarding `C[C@@H]1CCSC2Cn3cc(C(=O)NCc4ccc(F)cc4F)c(=O)c(O)c3C(=O)N21` (stereo partly drawn) [Compound 18], the “inhibitory effect” value was “strong inhibitory effect”.

The next data set has as its system HIV-1IIIB. As to the kind of experiment: Inhibition experiment for cytopathic effect (CPE) of HIV-1IIIB, syncytia formation in C8166 cells. It counts as cell-based. The note with it: Human immunodeficiency virus 1, 72 h, HIV-1IIIB in C8166 cells, 3 days, values given in pM. As to the method: as §1
7. Inhibition Experiment for Cytopathic Effect (CPE) of HIV-1IIIB
8×10^5/ml C8166 cells were inoculated onto the 96-well cell culture plate containing 100 μl/well drug subjected to gradient multiple proportion dilution in an amount of 50 μl/well, and then 50 μl HIV-1IIIB was added to dilute the supernatant, 1300 TCID 50/well. 3 repetition wells were set. Meanwhile, normal cell control wells without drugs were set. TDF and dolutegravir were positive drug controls. Culture was performed for 3 days under the conditions of 37° C. and 5% CO2, and syncytia formation were counted under the inverted microscope (100×). EC50 (50% Effective Concentration) is the concentration of the drug when 50% of syncytia formation is inhibited.
as §2
2. HIV-1 cytopathic cell inhibition rate (%)=(1−experiment well syncytia number/control well syncytia number)×100
(Damage to the host cells serves as the signal in cytopathic effect assays.)
In the case of `CC(C)(C)[C@H]1CSC2Cn3cc(C(=O)NCc4ccc(F)cc4F)c(=O)c(O)c3C(=O)N21` (stereo partly drawn) [Compound 8], a half-maximal effect (EC50) was put at 716 ± 103 pM.
`O=C(NCc1ccc(F)cc1F)c1cn2c(c(O)c1=O)C(=O)N1C(C2)SC[C@@H]1Cc1ccccc1` (stereo partly drawn) [Compound 12] had an EC50 of 526 ± 77.1 pM.
Still for that read-out and setting: the same measure for `C[C@@H]1CCSC2Cn3cc(C(=O)NCc4ccc(F)cc4F)c(=O)c(O)c3C(=O)N21` (stereo partly drawn) [Compound 18]: 10.2 ± 2.11 pM; for `CC(C)C[C@H]1CSC2Cn3cc(C(=O)NCc4ccc(F)cc4F)c(=O)c(O)c3C(=O)N21` (stereo partly drawn) [Compound 20]: 125 ± 17 pM; for `C[C@H]1CSC2Cn3cc(C(=O)NCc4ccc(F)cc4)c(=O)c(O)c3C(=O)N21` (stereo partly drawn) [Compound 66]: 75.3 ± 8.61 pM.

Still in this data set, the particulars now being: Human immunodeficiency virus 1, 72 h, HIV-1IIIB in C8166 cells, 3 days, values in nM.
The molecule `O=C(NCc1ccc(F)cc1F)c1cn2c(c(O)c1=O)C(=O)N1C(C2)SC[C@@H]1c1ccccc1` (stereo partly drawn) [Compound 10] showed a 50% effective concentration (EC50) of 3820 ± 510 pM.
Still for that read-out and setting: next, `C[C@@H]1CCO[C@H]2Cn3cc(C(=O)NCc4ccc(F)cc4F)c(=O)c(O)c3C(=O)N12` [Dolutegravir, reference compound]: 2130 ± 330 pM.
On the same count and under the same terms, next, `CC(C)OC(=O)OCOP(=O)(CO[C@H](C)Cn1cnc2c(N)ncnc21)OCOC(=O)OC(C)C` [TDF, tenofovir disoproxil fumarate, reference compound]: 12100 ± 11300 pM.
